Assay results taken from patent US5430028A, “5-aminoquinolone carboxylic acid derivative and antibacterial agent containing the same as active ingredient” (SS Pharmaceutical Co., Ltd., priority 1992, dated 1995).
Values after ≈ are worked out from the molar mass of the structure shown.

What was measured:
Assay in all cases: Antibacterial test (MIC), The Japan Chemotherapeutic Association method
[1] = tested on: Bacillus subtilis ATCC 6633; assay type: cell-based; conditions: ATCC6633, Mueller Hinton Medium, 10^6 /ml, 37° C., determined after 24 hours
Description: (§1) Antibacterial activities against microorganisms shown in Tables 1-3 were measured according to the MIC measurement method of The Japan Chemotherapeutic Association. Sparfloxacin was used as a control agent.
(§2) Medium: Mueller Hinton Medium
(§3) A 1,000 micrograms/ml solution in 25% dimethylsulfoxide was prepared. A series of solutions with various concentrations (100 micrograms to 0.006 micrograms) were prepared by successively diluting the solution with sterilized water by a factor of 1/2.
(§4) Amount of inoculated bacteria: 10^6 /ml
(§5) Cultivation conditions: 37° C., 48 hours
(§6) Determination: After 24 hours.

[2] = tested on: Escherichia coli K-12; assay type: cell-based; conditions: K12, Mueller Hinton Medium, 10^6 /ml, 37° C., determined after 24 hours
Description: as §1, §2, §3, §4, §5, §6

[3] = tested on: Escherichia coli O-1; assay type: cell-based; conditions: O1, Mueller Hinton Medium, 10^6 /ml, 37° C., determined after 24 hours
Description: as §1, §2, §3, §4, §5, §6

[4] = tested on: Klebsiella pneumoniae ATCC 10031; assay type: cell-based; conditions: ATCC10031, Mueller Hinton Medium, 10^6 /ml, 37° C., determined after 24 hours
Description: as §1, §2, §3, §4, §5, §6

[5] = tested on: Klebsiella pneumoniae IFO 13541; assay type: cell-based; conditions: IFO13541, Mueller Hinton Medium, 10^6 /ml, 37° C., determined after 24 hours
Description: as §1, §2, §3, §4, §5, §6

[6] = tested on: Micrococcus lysodeikticus IFO 3333; assay type: cell-based; conditions: Micrococcus luteus, IFO3333, Mueller Hinton Medium, 10^6 /ml, 37° C., determined after 24 hours
Description: as §1, §2, §3, §4, §5, §6

[7] = tested on: Proteus rettgeri; assay type: cell-based; conditions: Providencia rettgeri, Mueller Hinton Medium, 10^6 /ml, 37° C., determined after 24 hours
Description: as §1, §2, §3, §4, §5, §6

[8] = tested on: Proteus vulgaris OXK; assay type: cell-based; conditions: Mueller Hinton Medium, 10^6 /ml, 37° C., determined after 24 hours
Description: as §1, §2, §3, §4, §5, §6

[9] = tested on: Pseudomonas aeruginosa IFO 12582; assay type: cell-based; conditions: IFO12582, Mueller Hinton Medium, 10^6 /ml, 37° C., determined after 24 hours
Description: as §1, §2, §3, §4, §5, §6

[10] = tested on: Pseudomonas aeruginosa IFO 13736; assay type: cell-based; conditions: IFO13736, Mueller Hinton Medium, 10^6 /ml, 37° C., determined after 24 hours
Description: as §1, §2, §3, §4, §5, §6

[11] = tested on: Pseudomonas aeruginosa P2; assay type: cell-based; conditions: Mueller Hinton Medium, 10^6 /ml, 37° C., determined after 24 hours
Description: as §1, §2, §3, §4, §5, §6

[12] = tested on: Salmonella typhi TD; assay type: cell-based; conditions: Salmonella enterica, 24 h
Description: as §1, §2, §3, §4, §5, §6

[13] = tested on: Sarcina lutea ATCC 9341; assay type: cell-based; conditions: Micrococcus luteus, ATCC9341, Mueller Hinton Medium, 10^6 /ml, 37° C., determined after 24 hours
Description: as §1, §2, §3, §4, §5, §6

[14] = tested on: Serratia marcescens NHL; assay type: cell-based; conditions: Mueller Hinton Medium, 10^6 /ml, 37° C., determined after 24 hours
Description: as §1, §2, §3, §4, §5, §6

[15] = tested on: Shigella flexneri 2b; assay type: cell-based; conditions: Mueller Hinton Medium, 10^6 /ml, 37° C., determined after 24 hours
Description: as §1, §2, §3, §4, §5, §6

[16] = tested on: Staphylococcus aureus FDA 209P; assay type: cell-based; conditions: FDA209P, Mueller Hinton Medium, 10^6 /ml, 37° C., determined after 24 hours
Description: as §1, §2, §3, §4, §5, §6

[17] = tested on: Staphylococcus aureus Smith; assay type: cell-based; conditions: Mueller Hinton Medium, 10^6 /ml, 37° C., determined after 24 hours
Description: as §1, §2, §3, §4, §5, §6

[18] = tested on: Staphylococcus aureus Terashima; assay type: cell-based; conditions: Mueller Hinton Medium, 10^6 /ml, 37° C., determined after 24 hours
Description: as §1, §2, §3, §4, §5, §6

[19] = tested on: Staphylococcus epidermidis ATCC 12228; assay type: cell-based; conditions: ATCC12228, Mueller Hinton Medium, 10^6 /ml, 37° C., determined after 24 hours
Description: as §1, §2, §3, §4, §5, §6

[20] = tested on: Streptococcus faecalis IFO 12964; assay type: cell-based; conditions: Enterococcus faecalis, IFO12964, Mueller Hinton Medium, 10^6 /ml, 37° C., determined after 24 hours
Description: as §1, §2, §3, §4, §5, §6

[21] = tested on: M. R. Staphylococcus aureus 395; assay type: cell-based, Methicillin-resistant Staphylococcus aureus; conditions: M. R. Staphylococcus aureus 395 (MRSA); Mueller Hinton Medium, 10^6 /ml, 37° C., determined after 24 hours
Description: as §1, §2, §3, §4, §5, §6

[22] = tested on: M. R. Staphylococcus aureus 415; assay type: cell-based, Methicillin-resistant Staphylococcus aureus; conditions: M. R. Staphylococcus aureus 415 (MRSA); Mueller Hinton Medium, 10^6 /ml, 37° C., determined after 24 hours
Description: as §1, §2, §3, §4, §5, §6

[23] = tested on: M. R. Staphylococcus aureus 419; assay type: cell-based, Methicillin-resistant Staphylococcus aureus; conditions: M. R. Staphylococcus aureus 419 (MRSA); Mueller Hinton Medium, 10^6 /ml, 37° C., determined after 24 hours
Description: as §1, §2, §3, §4, §5, §6

[24] = tested on: M. R. Staphylococcus aureus 420; assay type: cell-based, Methicillin-resistant Staphylococcus aureus; conditions: M. R. Staphylococcus aureus 420 (MRSA); Mueller Hinton Medium, 10^6 /ml, 37° C., determined after 24 hours
Description: as §1, §2, §3, §4, §5, §6

[25] = tested on: M. R. Staphylococcus aureus 421; assay type: cell-based, Methicillin-resistant Staphylococcus aureus; conditions: M. R. Staphylococcus aureus 421 (MRSA); Mueller Hinton Medium, 10^6 /ml, 37° C., determined after 24 hours
Description: as §1, §2, §3, §4, §5, §6

Compound | MIC [1] | MIC [2] | MIC [3] | MIC [4] | MIC [5] | MIC [6] | MIC [7] | MIC [8] | MIC [9] | MIC [10] | MIC [11] | MIC [12] | MIC [13] | MIC [14] | MIC [15] | MIC [16] | MIC [17] | MIC [18] | MIC [19] | MIC [20] | further results
CN1CCN(c2c(F)c(N)c3c(=O)c(C(=O)O)cn(C4CC4)c3c2F)CCC1=O [1-8, 5-Amino-1-cyclopropyl-6,8-difluoro-7-(4-methyl-2,3,4,5,6,7-hexahydro-1H-1,4-diazepin-5-on-1-yl)-1,4-dihydro-4-oxoquinoline-3-carboxylic acid] | 0.006 µg/mL (≈ 0.0148 µM) | 0.1 µg/mL (≈ 0.246 µM) | 0.1 µg/mL (≈ 0.246 µM) | 0.006 µg/mL (≈ 0.0148 µM) | 0.1 µg/mL (≈ 0.246 µM) | 0.1 µg/mL (≈ 0.246 µM) | 0.39 µg/mL (≈ 0.96 µM) | 0.1 µg/mL (≈ 0.246 µM) | 6.25 µg/mL (≈ 15.4 µM) | 3.13 µg/mL (≈ 7.7 µM) | 12.5 µg/mL (≈ 30.8 µM) | 0.1 µg/mL (≈ 0.246 µM) | 0.39 µg/mL (≈ 0.96 µM) | 1.56 µg/mL (≈ 3.84 µM) | 0.006 µg/mL (≈ 0.0148 µM) | 0.006 µg/mL (≈ 0.0148 µM) | 0.012 µg/mL (≈ 0.0295 µM) | 0.05 µg/mL (≈ 0.123 µM) | 0.1 µg/mL (≈ 0.246 µM) | 0.2 µg/mL (≈ 0.492 µM) | MIC [21]: 0.05 µg/mL (≈ 0.123 µM); MIC [22]: 0.024 µg/mL (≈ 0.0591 µM); MIC [23]: 0.024 µg/mL (≈ 0.0591 µM); MIC [24]: 0.05 µg/mL (≈ 0.123 µM); MIC [25]: 0.024 µg/mL (≈ 0.0591 µM)
Nc1c(F)c(N2CCNC(=O)CC2)c(Cl)c2c1c(=O)c(C(=O)O)cn2C1CC1 [1-10, 5-Amino-8-chloro-1-cyclopropyl-6-fluoro-7-(2,3,4,5,6,7-hexahydro-1H-1,4-diazepin-5-on-1-yl)-4-oxo-quinoline-3-carboxylic acid] | 0.012 µg/mL (≈ 0.0294 µM) | 0.1 µg/mL (≈ 0.245 µM) | 0.1 µg/mL (≈ 0.245 µM) | 0.05 µg/mL (≈ 0.122 µM) | 0.1 µg/mL (≈ 0.245 µM) | 0.05 µg/mL (≈ 0.122 µM) | 0.78 µg/mL (≈ 1.91 µM) | 0.2 µg/mL (≈ 0.489 µM) | 3.13 µg/mL (≈ 7.66 µM) | 6.25 µg/mL (≈ 15.3 µM) | 12.5 µg/mL (≈ 30.6 µM) | 0.1 µg/mL (≈ 0.245 µM) | 0.2 µg/mL (≈ 0.489 µM) | 1.56 µg/mL (≈ 3.82 µM) | 0.006 µg/mL (≈ 0.0147 µM) | 0.012 µg/mL (≈ 0.0294 µM) | 0.006 µg/mL (≈ 0.0147 µM) | 0.1 µg/mL (≈ 0.245 µM) | 0.024 µg/mL (≈ 0.0587 µM) | 0.2 µg/mL (≈ 0.489 µM) | MIC [21]: 0.024 µg/mL (≈ 0.0587 µM); MIC [22]: 0.012 µg/mL (≈ 0.0294 µM); MIC [23]: 0.024 µg/mL (≈ 0.0587 µM); MIC [24]: 0.012 µg/mL (≈ 0.0294 µM); MIC [25]: 0.024 µg/mL (≈ 0.0587 µM)
Nc1c(F)c(N2CCNC(=O)CC2)c(F)c2c1c(=O)c(C(=O)O)cn2C1CC1 [Compound No. 1-2, 5-Amino-1-cyclopropyl-6,8-difluoro-7-(2,3,4,5,6,7-hexahydro-1H-1,4-diazepin-5-on-1-yl)-1,4-dihydro-4-oxo-quinoline-3-carboxylic acid] | 0.006 µg/mL (≈ 0.0153 µM) | 0.05 µg/mL (≈ 0.127 µM) | 0.05 µg/mL (≈ 0.127 µM) | 0.006 µg/mL (≈ 0.0153 µM) | 0.05 µg/mL (≈ 0.127 µM) | 0.05 µg/mL (≈ 0.127 µM) | 0.39 µg/mL (≈ 0.994 µM) | 0.05 µg/mL (≈ 0.127 µM) | 3.13 µg/mL (≈ 7.98 µM) | 3.13 µg/mL (≈ 7.98 µM) | 6.25 µg/mL (≈ 15.9 µM) | 0.05 µg/mL (≈ 0.127 µM) | 0.39 µg/mL (≈ 0.994 µM) | 0.78 µg/mL (≈ 1.99 µM) | 0.006 µg/mL (≈ 0.0153 µM) | 0.012 µg/mL (≈ 0.0306 µM) | 0.006 µg/mL (≈ 0.0153 µM) | 0.05 µg/mL (≈ 0.127 µM) | 0.05 µg/mL (≈ 0.127 µM) | 0.2 µg/mL (≈ 0.51 µM) | MIC [21]: 0.05 µg/mL (≈ 0.127 µM); MIC [22]: 0.024 µg/mL (≈ 0.0612 µM); MIC [23]: 0.024 µg/mL (≈ 0.0612 µM); MIC [24]: 0.05 µg/mL (≈ 0.127 µM); MIC [25]: 0.012 µg/mL (≈ 0.0306 µM)
C[C@@H]1CN(c2c(F)c(N)c3c(=O)c(C(=O)O)cn(C4CC4)c3c2F)C[C@H](C)N1 [Spafloxacin, reference compound] | 0.024 µg/mL (≈ 0.0612 µM) | 0.012 µg/mL (≈ 0.0306 µM) | 0.012 µg/mL (≈ 0.0306 µM) | 0.006 µg/mL (≈ 0.0153 µM) | 0.012 µg/mL (≈ 0.0306 µM) | 0.39 µg/mL (≈ 0.994 µM) | 0.1 µg/mL (≈ 0.255 µM) | 0.05 µg/mL (≈ 0.127 µM) | 1.56 µg/mL (≈ 3.98 µM) | 0.78 µg/mL (≈ 1.99 µM) | 1.56 µg/mL (≈ 3.98 µM) | 0.006 µg/mL (≈ 0.0153 µM) | 1.56 µg/mL (≈ 3.98 µM) | 0.2 µg/mL (≈ 0.51 µM) | 0.006 µg/mL (≈ 0.0153 µM) | 0.024 µg/mL (≈ 0.0612 µM) | 0.05 µg/mL (≈ 0.127 µM) | 0.1 µg/mL (≈ 0.255 µM) | 0.2 µg/mL (≈ 0.51 µM) | 0.39 µg/mL (≈ 0.994 µM) | MIC [21]: 0.1 µg/mL (≈ 0.255 µM); MIC [22]: 0.05 µg/mL (≈ 0.127 µM); MIC [23]: 0.05 µg/mL (≈ 0.127 µM); MIC [24]: 0.1 µg/mL (≈ 0.255 µM); MIC [25]: 0.05 µg/mL (≈ 0.127 µM)
